Where a name gives a salt, the structure may show the parent alone.
Legend:
[1] = target: T1, FUS-SNAP condensates (Homo sapiens, UniProt P35637); test: Fluorescence imaging of dye partitioning in FUS-SNAP condensates (I-in, I-out); type: physicochemical; conditions: for Ratio of intensity inside:outside FUS-SNAP Condensates Day 1 / Ratio of intensity inside:outside FUS-SNAP Condensates Day 2 / Ratio of intensity inside:outside FUS-SNAP Condensates Average: I-in:I-out; for Ratio of intensity inside:outside FUS-SNAP Condensates Day 1 / Ratio of intensity inside:outside FUS-SNAP Condensates Day 2 / Ratio of intensity inside:outside FUS-SNAP Condensates Average / Intensity Inside with Dye Average / Intensity Inside with Dye 1 / Intensity Inside with Dye 2 / Intensity Inside with Dye 3 / Intensity Outside with Dye Average / Intensity Outside with Dye 1 / Intensity Outside with Dye 2 / Intensity Outside with Dye 3: 10 μM dye; for Ratio of intensity inside:outside FUS-SNAP Condensates Average: average of two days; for Intensity Inside with Dye Average / Intensity Inside with Dye 1 / Intensity Inside with Dye 2 / Intensity Inside with Dye 3 / Intensity Inside Dye-No Dye: inside FUS-SNAP condensate; for Intensity Inside with Dye Average / Intensity Inside with Dye 1 / Intensity Inside with Dye 2 / Intensity Inside with Dye 3 / Intensity Outside with Dye Average / Intensity Outside with Dye 1 / Intensity Outside with Dye 2 / Intensity Outside with Dye 3: 5 μM protein; for Intensity Inside with Dye Average / Intensity Outside with Dye Average: average of three images; for Intensity Inside with Dye Average / Intensity Inside with Dye 1 / Intensity Inside with Dye 2 / Intensity Inside with Dye 3 / Intensity Inside Dye-No Dye / Intensity Outside with Dye Average / Intensity Outside with Dye 1 / Intensity Outside with Dye 2 / Intensity Outside with Dye 3 / Intensity Outside (Dye-No Dye): one day of experiments; for Intensity Inside with Dye 1 / Intensity Outside with Dye 1: image 1; for Intensity Inside with Dye 2 / Intensity Outside with Dye 2: image 2; for Intensity Inside with Dye 3 / Intensity Outside with Dye 3: image 3; for Intensity Inside Dye-No Dye / Intensity Outside (Dye-No Dye): background corrected; for Intensity Outside with Dye Average / Intensity Outside with Dye 1 / Intensity Outside with Dye 2 / Intensity Outside with Dye 3 / Intensity Outside (Dye-No Dye): outside FUS-SNAP condensate
T1 sequence (P35637 1-526): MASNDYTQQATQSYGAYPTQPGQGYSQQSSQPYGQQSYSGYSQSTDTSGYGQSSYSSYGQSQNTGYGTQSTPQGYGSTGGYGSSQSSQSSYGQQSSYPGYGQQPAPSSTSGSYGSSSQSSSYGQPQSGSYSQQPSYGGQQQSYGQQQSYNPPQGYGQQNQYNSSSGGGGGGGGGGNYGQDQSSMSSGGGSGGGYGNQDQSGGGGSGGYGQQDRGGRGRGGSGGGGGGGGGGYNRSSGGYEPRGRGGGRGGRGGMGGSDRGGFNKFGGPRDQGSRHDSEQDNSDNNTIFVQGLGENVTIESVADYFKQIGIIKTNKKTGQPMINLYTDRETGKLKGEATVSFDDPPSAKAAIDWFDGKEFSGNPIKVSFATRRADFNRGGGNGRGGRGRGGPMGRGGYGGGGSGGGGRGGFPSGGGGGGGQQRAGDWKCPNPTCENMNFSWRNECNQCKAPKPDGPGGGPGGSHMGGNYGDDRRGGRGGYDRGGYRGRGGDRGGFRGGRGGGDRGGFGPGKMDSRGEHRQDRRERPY
Procedure, shortened: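 Partitioning read by spinning-disk confocal imaging (60× oil, dye-specific exposure 1-1000 ms) of condensates formed from 5 μM protein (FUS-SNAP or untagged PGL-3) plus 10 μM dye, 75 mM KCl, 1% DMSO, pH 7.25. Background-subtracted intensities inside and beside one condensate per image, three images averaged.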

[2] = target: T1, FUS-SNAP condensates; test: Fluorescence-based assay of compound partitioning compared with the MS assay (Example 4); type: physicochemical; conditions: condensate volume fraction of 1/1000 used
Experimental: The partition characteristics of the test compounds were also determined using the fluorescence-based assay method disclosed in Example 2.
Rhodamine 101 (Rho 101), Rhodamine 800 ([…]), Rhodamine B (Rho B), Rhodamine 123 (Rho 123), and fluorescein were assessed using both the fluorescence-based assay and the mass spectrometry-based assay, as discussed above. […] Using the measurements, a ratio of compound concentration associated with the condensate compared to compound concentration not associated with the condensate was calculated for each compound. A condensate volume fraction of 1/1000 in relation to the outside phase was used.

With O=C1OC2(c3ccc(O)cc3Oc3cc(O)ccc32)c2ccccc21 [Dye 6, Fluorescein] the “Ratio of intensity inside:outside FUS-SNAP Condensates Day 1” value [1] was 1.7, the “Ratio of intensity inside:outside FUS-SNAP Condensates Day 2” value [1] was 1.4 and the “Ratio of intensity inside:outside FUS-SNAP Condensates Average” value [1] was 1.5. The “Intensity Inside with Dye Average” value [1] was 6277.1, the “Intensity Inside with Dye 1” value [1] was 6328.8 and the “Intensity Inside with Dye 2” value [1] was 6300.8. The “Intensity Inside with Dye 3” value [1] was 6201.7, the “Intensity Inside Dye-No Dye” value [1] was 6141.9 and the “Intensity Outside with Dye Average” value [1] was 3784.7. For the same compound, the “Intensity Outside with Dye 1” value [1] was 3771.1, the “Intensity Outside with Dye 2” value [1] was 3840.2 and the “Intensity Outside with Dye 3” value [1] was 3742.7. The “Intensity Outside (Dye-No Dye)” value [1] was 3680.6 and the “Ratio of compound concentration in versus compound concentration out, Fluorescence-based assay” value (shortened to “Ratio of compound concentration”) [2] was 1.

COC(=O)c1ccccc1-c1c2ccc(=N)cc-2oc2cc(N)ccc12.Cl [Dye 14, Rhodamine 123] was tested, and the “Ratio of intensity inside:outside FUS-SNAP Condensates Day 1” value [1] was 1.3, the “Ratio of intensity inside:outside FUS-SNAP Condensates Day 2” value [1] was 1.4 and the “Ratio of intensity inside:outside FUS-SNAP Condensates Average” value [1] was 1.3. The “Intensity Inside with Dye Average” value [1] was 2970.4, the “Intensity Inside with Dye 1” value [1] was 3123.1 and the “Intensity Inside with Dye 2” value [1] was 2956.9. The “Intensity Inside with Dye 3” value [1] was 2831.2, the “Intensity Inside Dye-No Dye” value [1] was 2835.2 and the “Intensity Outside with Dye Average” value [1] was 2277.6. For the same compound, the “Intensity Outside with Dye 1” value [1] was 2174.8, the “Intensity Outside with Dye 2” value [1] was 2322.7 and the “Intensity Outside with Dye 3” value [1] was 2335.1. The “Intensity Outside (Dye-No Dye)” value [1] was 2173.5 and the “Ratio of compound concentration” value [2] was 1.

With CCN(CC)c1ccc2c(-c3ccccc3C(=O)O)c3ccc(=[N+](CC)CC)cc-3oc2c1 [Dye 16, Rhodamine B] the “Ratio of intensity inside:outside FUS-SNAP Condensates Day 1” value [1] was 4.4, the “Ratio of intensity inside:outside FUS-SNAP Condensates Day 2” value [1] was 3.8 and the “Ratio of intensity inside:outside FUS-SNAP Condensates Average” value [1] was 4.1. For the same compound, the “Intensity Inside with Dye Average” value [1] was 2041.4, the “Intensity Inside with Dye 1” value [1] was 2154.5 and the “Intensity Inside with Dye 2” value [1] was 2074.7. The “Intensity Inside with Dye 3” value [1] was 1895.0, the “Intensity Inside Dye-No Dye” value [1] was 1941.7 and the “Intensity Outside with Dye Average” value [1] was 540.2. The “Intensity Outside with Dye 1” value [1] was 546.8, the “Intensity Outside with Dye 2” value [1] was 508.3 and the “Intensity Outside with Dye 3” value [1] was 565.6. For the same compound, the “Intensity Outside (Dye-No Dye)” value [1] was 440.3 and the “Ratio of compound concentration” value [2] was 666.

In the case of O=C([O-])c1ccccc1C1=c2cc3c4c(c2Oc2c1cc1c5c2CCCN5CCC1)CCC[N+]=4CCC3 [Dye 17, Rhodamine 101 inner salt], the “Ratio of intensity inside:outside FUS-SNAP Condensates Day 1” value [1] is reported as 6.1, the “Ratio of intensity inside:outside FUS-SNAP Condensates Day 2” value [1] is reported as 5.9 and the “Ratio of intensity inside:outside FUS-SNAP Condensates Average” value [1] is reported as 6.0. For the same compound, the “Intensity Inside with Dye Average” value [1] was 4956.7, the “Intensity Inside with Dye 1” value [1] was 4695.6 and the “Intensity Inside with Dye 2” value [1] was 5663.6. For the same compound, the “Intensity Inside with Dye 3” value [1] was 4511.0, the “Intensity Inside Dye-No Dye” value [1] was 4857.1 and the “Intensity Outside with Dye Average” value [1] was 902.4. The “Intensity Outside with Dye 1” value [1] was 808.3, the “Intensity Outside with Dye 2” value [1] was 1011.5 and the “Intensity Outside with Dye 3” value [1] was 887.5. For the same compound, the “Intensity Outside (Dye-No Dye)” value [1] was 802.5 and the “Ratio of compound concentration” value [2] was 1,500.

With N#CC1=c2cc3c4c(c2Oc2c1cc1c5c2CCCN5CCC1)CCC[N+]=4CCC3 [Dye 18, Rhodamine 800] the “Ratio of intensity inside:outside FUS-SNAP Condensates Day 1” value [1] was 7.6, the “Ratio of intensity inside:outside FUS-SNAP Condensates Day 2” value [1] was 11.0 and the “Ratio of intensity inside:outside FUS-SNAP Condensates Average” value [1] was 9.3. The “Intensity Inside with Dye Average” value [1] was 15051.4, the “Intensity Inside with Dye 1” value [1] was 15394.5 and the “Intensity Inside with Dye 2” value [1] was 13908.5. The “Intensity Inside with Dye 3” value [1] was 15851.1, the “Intensity Inside Dye-No Dye” value [1] was 14919.5 and the “Intensity Outside with Dye Average” value [1] was 2092.2. The “Intensity Outside with Dye 1” value [1] was 2064.2, the “Intensity Outside with Dye 2” value [1] was 1988.2 and the “Intensity Outside with Dye 3” value [1] was 2224.3. For the same compound, the “Intensity Outside (Dye-No Dye)” value [1] was 1959.9 and the “Ratio of compound concentration” value [2] was 1,000.

Reference: patent US12174198B2, “Methods of characterizing condensate-associated characteristics of compounds and uses thereof” (Dewpoint Therapeutics, Inc., priority 2019, dated 2024)
